Legend:
[1] = Mouse liver microsome stability assay; type: in vitro ADME; details: male, CD1, mouse, microsomes, pH 7.4
[2] = Human liver microsome stability assay; type: in vitro ADME; details: both sexes, human, microsomes, pH 7.4
[3] = Rat liver microsome stability assay; type: in vitro ADME; details: rat liver microsomes (male Sprague-Dawley), 0.5 μM test compound, pH 7.4, 37° C.; for half-life at 0.5 μM: 0.25 mg/mL microsomal protein, read-out: Stability in rat liver microsomes (t1/2 in minutes); for Stability in rat liver microsomes (t1/2 in minutes): […] microsomal protein
[4] = system: breast cancer cell line MX-1; assay: MX-1 cell line proliferation assay; type: cell-based, human; details: Homo sapiens, MX1, 72 h; MX-1 cells, 3-day proliferation, Cell Titer Glo; read-out: Cellular proliferation: EC50
[5] = target: human BRD4 first bromodomain (BDI_K57-E168) (Homo sapiens (Human), UniProt O60885); assay: TR-FRET bromodomain binding assay, BRD4 first bromodomain
[6] = target: human BRD4 second bromodomain (BDII_E352-M457) (Homo sapiens (Human), UniProt O60885); assay: TR-FRET bromodomain binding assay, BRD4 second bromodomain

## Cn1cc(-c2cc(S(C)(=O)=O)ccc2NCC2CCOC2)c2cc[nH]c2c1=O (stereo not drawn) [Example 201, 6-methyl-4-{5-(methylsulfonyl)-2-[(tetrahydrofuran-3-ylmethyl)amino]phenyl}-1,6-dihydro-7H-pyrrolo[2,3-c]pyridin-7-one]
[1]
  half-life at 0.5 μM: > 120 min
[2]
  half-life at 0.5 μM: 56 min
[3]
  half-life at 0.5 μM: 117 min
[4]
  EC50: 0.135 µM
[5]
  Ki: 0.0102 µM
[6]
  Ki: 0.0407 µM

## CNS(=O)(=O)Nc1ccc(Oc2c(F)cc(F)cc2F)c(-c2cn(C)c(=O)c3[nH]ccc23)c1 [Example 98, N-methyl-N′-[3-(6-methyl-7-oxo-6,7-dihydro-1H-pyrrolo[2,3-c]pyridin-4-yl)-4-(2,4,6-trifluorophenoxy)phenyl]sulfuric diamide]
[1]
  half-life at 0.5 μM: 10 min
[2]
  half-life at 0.5 μM: 26 min
[3]
  half-life at 0.5 μM: 33 min
[4]
  EC50: 0.0529 µM
[5]
  Ki: 0.0065 µM
[6]
  Ki: 0.0027 µM

## Cn1cc(-c2cc(S(C)(=O)=O)ccc2OC[C@@H]2CCC(=O)N2)c2cc[nH]c2c1=O [Example 228, 6-methyl-4-[5-(methylsulfonyl)-2-{[(2S)-5-oxopyrrolidin-2-yl]methoxy}phenyl]-1,6-dihydro-7H-pyrrolo[2,3-c]pyridin-7-one]
[1]
  half-life at 0.5 μM: > 120 min
[2]
  half-life at 0.5 μM: > 120 min
[3]
  half-life at 0.5 μM: 107 min
[4]
  EC50: > 3 µM
[5]
  Ki: 0.039 µM
[6]
  Ki: 0.108 µM

## Cn1cc(-c2cc(S(C)(=O)=O)ccc2Oc2ccc(CC(N)=O)cc2)c2cc[nH]c2c1=O [Example 165, 2-{4-[2-(6-methyl-7-oxo-6,7-dihydro-1H-pyrrolo[2,3-c]pyridin-4-yl)-4-(methylsulfonyl)phenoxy]phenyl}acetamide]
[1]
  half-life at 0.5 μM: 27 min
[2]
  half-life at 0.5 μM: > 120 min
[3]
  half-life at 0.5 μM: 111 min
[4]
  EC50: 0.104 µM
[5]
  Ki: 0.005 µM
[6]
  Ki: 0.0022 µM

## Cn1cc(-c2cc(CO)ccc2Oc2ccccc2)c2cc[nH]c2c1=O [Example 20, 4-[5-(hydroxymethyl)-2-phenoxyphenyl]-6-methyl-1,6-dihydro-7H-pyrrolo[2,3-c]pyridin-7-one]
[1]
  half-life at 0.5 μM: 7 min
[2]
  half-life at 0.5 μM: 18 min
[3]
  Stability in rat liver microsomes (t1/2 in minutes): 1 min
[4]
  EC50: 0.19 µM
[5]
  Ki: 0.0109 µM
[6]
  Ki: 0.00068 µM

## Cn1cc(-c2cc(S(=O)(=O)N3CCC(O)CC3)ccc2OCC2CC2)c2cc[nH]c2c1=O [Example 354, 4-{2-(cyclopropylmethoxy)-5-[(4-hydroxypiperidin-1-yl)sulfonyl]phenyl}-6-methyl-1,6-dihydro-7H-pyrrolo[2,3-c]pyridin-7-one]
[1]
  half-life at 0.5 μM: 24 min
[2]
  half-life at 0.5 μM: 23 min
[3]
  half-life at 0.5 μM: 41 min
[4]
  EC50: 0.0954 µM
[5]
  Ki: 0.066 µM
[6]
  Ki: 0.0129 µM

## Cn1cc(-c2cc(CNC(=O)CCC(=O)O)ccc2Oc2ccccc2)c2cc[nH]c2c1=O [Example 42, 4-{[3-(6-methyl-7-oxo-6,7-dihydro-1H-pyrrolo[2,3-c]pyridin-4-yl)-4-phenoxybenzyl]amino}-4-oxobutanoic acid]
[1]
  half-life at 0.5 μM: > 120 min
[2]
  half-life at 0.5 μM: > 120 min
[3]
  half-life at 0.5 μM: > 120 min
[4]
  EC50: > 3 µM
[5]
  Ki: 0.0546 µM
[6]
  Ki: 0.0934 µM

## Cn1cc(-c2cc(NS(C)(=O)=O)ccc2OC2CCCC2)c2cc[nH]c2c1=O [Example 58, N-[4-(cyclopentyloxy)-3-(6-methyl-7-oxo-6,7-dihydro-1H-pyrrolo[2,3-c]pyridin-4-yl)phenyl]methanesulfonamide]
[1]
  half-life at 0.5 μM: 4 min
[2]
  half-life at 0.5 μM: > 120 min
[3]
  Stability in rat liver microsomes (t1/2 in minutes): 1 min
[4]
  EC50: 0.0451 µM
[5]
  Ki: 0.0021 µM
[6]
  Ki: 0.0081 µM

## CCOC(=O)c1cc2c(-c3cc(NS(C)(=O)=O)ccc3Oc3ccccc3)cn(C)c(=O)c2[nH]1 [Example 71, ethyl 6-methyl-4-{5-[(methylsulfonyl)amino]-2-phenoxyphenyl}-7-oxo-6,7-dihydro-1H-pyrrolo[2,3-c]pyridine-2-carboxylate]
[1]
  half-life at 0.5 μM: 6 min
[2]
  half-life at 0.5 μM: 2 min
[3]
  Stability in rat liver microsomes (t1/2 in minutes): 1 min
[4]
  EC50: 0.0175 µM
[5]
  Ki: 0.00081 µM
[6]
  Ki: 0.0012 µM

## CCS(=O)(=O)N(CCN(C)C)c1ccc(Oc2ccc(F)cc2F)c(-c2cn(C)c(=O)c3[nH]ccc23)c1 [Example 296, N-[4-(2,4-difluorophenoxy)-3-(6-methyl-7-oxo-6,7-dihydro-1H-pyrrolo[2,3-c]pyridin-4-yl)phenyl]-N-[2-(dimethylamino)ethyl]ethanesulfonamide]
[1]
  half-life at 0.5 μM: 6 min
[2]
  half-life at 0.5 μM: 7 min
[3]
  half-life at 0.5 μM: 13 min
[4]
  EC50: 0.535 µM
[5]
  Ki: 0.705 µM
[6]
  Ki: 0.101 µM

## Cn1cc(-c2cc(NS(C)(=O)=O)ccc2Oc2ccc(C#N)cc2)c2cc[nH]c2c1=O [Example 33, N-[4-(4-cyanophenoxy)-3-(6-methyl-7-oxo-6,7-dihydro-1H-pyrrolo[2,3-c]pyridin-4-yl)phenyl]methanesulfonamide]
[1]
  half-life at 0.5 μM: 46 min
[2]
  half-life at 0.5 μM: > 120 min
[3]
  half-life at 0.5 μM: > 120 min
[4]
  EC50: 0.0417 µM
[5]
  Ki: 0.0026 µM
[6]
  Ki: 0.0048 µM

## Cc1ccc(F)c(Oc2ccc(S(C)(=O)=O)cc2-c2cn(C)c(=O)c3[nH]ccc23)c1 [Example 186, 4-[2-(2-fluoro-5-methylphenoxy)-5-(methylsulfonyl)phenyl]-6-methyl-1,6-dihydro-7H-pyrrolo[2,3-c]pyridin-7-one]
[1]
  half-life at 0.5 μM: 8 min
[2]
  half-life at 0.5 μM: 9 min
[3]
  half-life at 0.5 μM: 3 min
[4]
  EC50: 0.0484 µM
[5]
  Ki: 0.0101 µM
[6]
  Ki: 0.0033 µM

## Cn1cc(-c2cc(C(=O)N3CCC(NC(=O)OC(C)(C)C)C3)ccc2Oc2ccc(F)cc2F)c2cc[nH]c2c1=O (stereo not drawn) [Example 54, tert-butyl {1-[4-(2,4-difluorophenoxy)-3-(6-methyl-7-oxo-6,7-dihydro-1H-pyrrolo[2,3-c]pyridin-4-yl)benzoyl]pyrrolidin-3-yl}carbamate]
[1]
  half-life at 0.5 μM: 2 min
[2]
  half-life at 0.5 μM: 3 min
[3]
  half-life at 0.5 μM: 30 min
[4]
  EC50: 0.266 µM
[5]
  Ki: 0.0951 µM
[6]
  Ki: 0.0375 µM

## Cn1cc(-c2cc(CS(=O)(=O)c3ccccc3)ccc2Oc2ccc(F)cc2F)c2cc[nH]c2c1=O [Example 306, 4-{2-(2,4-difluorophenoxy)-5-[(phenylsulfonyl)methyl]phenyl}-6-methyl-1,6-dihydro-7H-pyrrolo[2,3-c]pyridin-7-one]
[1]
  half-life at 0.5 μM: 3 min
[2]
  half-life at 0.5 μM: 11 min
[3]
  half-life at 0.5 μM: 9 min
[4]
  EC50: 0.0516 µM
[5]
  Ki: 0.0822 µM
[6]
  Ki: 0.0639 µM

## CN(c1ccc(Oc2ccccc2)c(-c2cn(C)c(=O)c3[nH]ccc23)c1)S(C)(=O)=O [Example 8, N-methyl-N-[3-(6-methyl-7-oxo-6,7-dihydro-1H-pyrrolo[2,3-c]pyridin-4-yl)-4-phenoxyphenyl]methanesulfonamide]
[1]
  half-life at 0.5 μM: 9 min
[2]
  half-life at 0.5 μM: 19 min
[3]
  Stability in rat liver microsomes (t1/2 in minutes): 1 min
[4]
  EC50: 0.0244 µM
[5]
  Ki: 0.0026 µM
[6]
  Ki: 0.0039 µM

## CCS(=O)(=O)c1ccc(OC2CCN(C(C)=O)CC2)c(-c2cn(C)c(=O)c3[nH]ccc23)c1 [Example 303, 4-{2-[(1-acetylpiperidin-4-yl)oxy]-5-(ethylsulfonyl)phenyl}-6-methyl-1,6-dihydro-7H-pyrrolo[2,3-c]pyridin-7-one]
[1]
  half-life at 0.5 μM: > 120 min
[2]
  half-life at 0.5 μM: 42 min
[3]
  half-life at 0.5 μM: 69 min
[4]
  EC50: 0.335 µM
[5]
  Ki: 0.0039 µM
[6]
  Ki: 0.0071 µM

## Cn1cc(-c2cc(-c3ccc(F)nc3)ccc2OCC2CC2)c2cc[nH]c2c1=O [Example 348, 4-[2-(cyclopropylmethoxy)-5-(6-fluoropyridin-3-yl)phenyl]-6-methyl-1,6-dihydro-7H-pyrrolo[2,3-c]pyridin-7-one]
[1]
  half-life at 0.5 μM: 25 min
[2]
  half-life at 0.5 μM: > 120 min
[3]
  half-life at 0.5 μM: 2 min
[4]
  EC50: 1 µM
[5]
  Ki: 0.157 µM
[6]
  Ki: 0.422 µM

## Cn1cc(-c2cc(CCO)ccc2OCc2ccccc2)c2cc[nH]c2c1=O [Example 44, 4-[2-(benzyloxy)-5-(2-hydroxyethyl)phenyl]-6-methyl-1,6-dihydro-7H-pyrrolo[2,3-c]pyridin-7-one]
[1]
  half-life at 0.5 μM: 27 min
[2]
  half-life at 0.5 μM: 33.7 min
[3]
  half-life at 0.5 μM: 6 min
[4]
  EC50: 0.828 µM
[5]
  Ki: 0.286 µM
[6]
  Ki: 0.236 µM

## Cn1cc(-c2cc(S(=O)(=O)N3CCCC3)ccc2OCC2CC2(F)F)c2cc[nH]c2c1=O (stereo not drawn) [Example 307, 4-{2-[(2,2-difluorocyclopropyl)methoxy]-5-(pyrrolidin-1-ylsulfonyl)phenyl}-6-methyl-1,6-dihydro-7H-pyrrolo[2,3-c]pyridin-7-one]
[1]
  half-life at 0.5 μM: 2 min
[2]
  half-life at 0.5 μM: 3 min
[3]
  half-life at 0.5 μM: 3 min
[4]
  EC50: 0.122 µM
[5]
  Ki: 0.0024 µM
[6]
  Ki: 0.0029 µM

## Cn1cc(-c2cc(S(C)(=O)=O)ccc2Oc2cccc(Cl)c2)c2cc[nH]c2c1=O [Example 153, 4-[2-(3-chlorophenoxy)-5-(methylsulfonyl)phenyl]-6-methyl-1,6-dihydro-7H-pyrrolo[2,3-c]pyridin-7-one]
[1]
  half-life at 0.5 μM: 11 min
[2]
  half-life at 0.5 μM: 33 min
[3]
  half-life at 0.5 μM: 8 min
[4]
  EC50: 0.0933 µM
[5]
  Ki: 0.0228 µM
[6]
  Ki: 0.0082 µM

## Cn1cc(-c2cc(C(N)=O)ccc2Oc2ccc(F)cc2F)c2cc[nH]c2c1=O [Example 50, 4-(2,4-difluorophenoxy)-3-(6-methyl-7-oxo-6,7-dihydro-1H-pyrrolo[2,3-c]pyridin-4-yl)benzamide]
[1]
  half-life at 0.5 μM: 46 min
[2]
  half-life at 0.5 μM: 35 min
[3]
  half-life at 0.5 μM: 88 min
[4]
  EC50: 0.206 µM
[5]
  Ki: 0.0215 µM
[6]
  Ki: 0.0081 µM
